From ChEMBL document CHEMBL1152085, “Novel 3-deoxy-3-descladinosyl-6-O-methyl erythromycin a analogues. Synthesis and in vitro activity” (1997)
Values after ≈ are worked out from the molar mass of the structure shown.

Assays:
Format in all cases: functional
Staphylococcus aureus [1] = assay: Tested in vitro for minimum inhibitory concentration to produce antibacterial activity against Staphylococcus aureus CMX 642A in presence of erythromycin A
Escherichia coli [2] = assay: Tested in vitro for minimum inhibitory concentration to produce antibacterial activity against Escherichia coli JUHL
Staphylococcus aureus [3] = assay: Tested in vitro for minimum inhibitory concentration to produce antibacterial activity against Staphylococcus aureus 1775
Streptococcus pyogenes [4] = assay: Tested in vitro for minimum inhibitory concentration to produce antibacterial activity against Streptococcus pyogenes 930 in presence of erythromycin A
Escherichia coli [5] = assay: Tested in vitro for minimum inhibitory concentration to produce antibacterial activity against Escherichia coli JUHL in presence of erythromycin A
Staphylococcus aureus [6] = assay: Tested in vitro for minimum inhibitory concentration to produce antibacterial activity against Staphylococcus aureus CMX 553
[7] = system: Staphylococcus epidermidis; assay: Tested in vitro for minimum inhibitory concentration to produce antibacterial activity against Staphylococcus epidermidis 3519
Staphylococcus aureus [8] = assay: Tested in vitro for minimum inhibitory concentration to produce antibacterial activity against Staphylococcus aureus NCTC-10649M
Staphylococcus aureus [9] = assay: Tested in vitro for minimum inhibitory concentration to produce antibacterial activity against Staphylococcus aureus 1775 in presence of erythromycin A
Staphylococcus aureus [10] = assay: Tested in vitro for minimum inhibitory concentration to produce antibacterial activity against Staphylococcus aureus CMX 553 in presence of erythromycin A
Streptococcus pyogenes [11] = assay: Tested in vitro for minimum inhibitory concentration to produce antibacterial activity against Streptococcus pyogenes PIU 2548
Staphylococcus aureus [12] = assay: Tested in vitro for minimum inhibitory concentration to produce antibacterial activity against Staphylococcus aureus NCTC-10649M in presence of erythromycin A
Streptococcus equinus [13] = assay: Tested in vitro for minimum inhibitory concentration to produce antibacterial activity against Streptococcus bovis A-5169
Enterococcus faecium [14] = assay: Tested in vitro for minimum inhibitory concentration to produce antibacterial activity against Enterococcus faecium ATCC 8043 in presence of erythromycin A
Staphylococcus aureus [15] = assay: Tested in vitro for minimum inhibitory concentration to produce antibacterial activity against Staphylococcus aureus ATCC 6538P in presence of erythromycin A
Streptococcus agalactiae [16] = assay: Tested in vitro for minimum inhibitory concentration to produce antibacterial activity against Streptococcus agalactiae CMX 508 in presence of erythromycin A
Streptococcus agalactiae [17] = assay: Tested in vitro for minimum inhibitory concentration to produce antibacterial activity against Streptococcus agalactiae CMX 508
Streptococcus pyogenes [18] = assay: Tested in vitro for minimum inhibitory concentration to produce antibacterial activity against Streptococcus pyogenes PIU 2548 in presence of erythromycin A
[19] = system: Staphylococcus epidermidis; assay: Tested in vitro for minimum inhibitory concentration to produce antibacterial activity against Staphylococcus epidermidis 3519 in presence of erythromycin A
Staphylococcus aureus [20] = assay: Tested in vitro for minimum inhibitory concentration to produce antibacterial activity against Staphylococcus aureus A5177
Staphylococcus aureus [21] = assay: Tested in vitro for minimum inhibitory concentration to produce antibacterial activity against Staphylococcus aureus A-5278
Escherichia coli [22] = assay: Tested in vitro for minimum inhibitory concentration to produce antibacterial activity against Escherichia coli SS in presence of erythromycin A
Staphylococcus aureus [23] = assay: Tested in vitro for minimum inhibitory concentration to produce antibacterial activity against Staphylococcus aureus A5177 in presence of erythromycin A
Staphylococcus aureus [24] = assay: Tested in vitro for minimum inhibitory concentration to produce antibacterial activity against Staphylococcus aureus A-5278 in presence of erythromycin A
Staphylococcus aureus [25] = assay: Tested in vitro for minimum inhibitory concentration to produce antibacterial activity against Staphylococcus aureus ATCC 6538P
Staphylococcus aureus [26] = assay: Tested in vitro for minimum inhibitory concentration to produce antibacterial activity against Staphylococcus aureus CMX 642A
Streptococcus pyogenes [27] = assay: Tested in vitro for minimum inhibitory concentration to produce antibacterial activity against Streptococcus pyogenes 930
Streptococcus pyogenes [28] = assay: Tested in vitro for minimum inhibitory concentration to produce antibacterial activity against Streptococcus pyogenes EES61 in presence of erythromycin A
Streptococcus equinus [29] = assay: Tested in vitro for minimum inhibitory concentration to produce antibacterial activity against Streptococcus bovis A-5169 in presence of erythromycin A
Enterococcus faecium [30] = assay: Tested in vitro for minimum inhibitory concentration to produce antibacterial activity against Enterococcus faecium ATCC 8043
Escherichia coli [31] = assay: Tested in vitro for minimum inhibitory concentration to produce antibacterial activity against Escherichia coli SS
Streptococcus pyogenes [32] = assay: Tested in vitro for minimum inhibitory concentration to produce antibacterial activity against Streptococcus pyogenes EES61

Row | SMILES | MIC (Staphylococcus aureus [1]) [µg/mL] | MIC (Escherichia coli [2]) [µg/mL] | MIC (Staphylococcus aureus [3]) [µg/mL] | MIC (Streptococcus pyogenes [4]) [µg/mL] | MIC (Escherichia coli [5]) [µg/mL] | MIC (Staphylococcus aureus [6]) [µg/mL] | MIC [7] [µg/mL] | MIC (Staphylococcus aureus [8]) [µg/mL] | MIC (Staphylococcus aureus [9]) [µg/mL] | MIC (Staphylococcus aureus [10]) [µg/mL] | MIC (Staphylococcus aureus [12]) [µg/mL] | MIC (Streptococcus equinus [13]) [µg/mL] | MIC (Enterococcus faecium [14]) [µg/mL] | MIC (Staphylococcus aureus [15]) [µg/mL] | MIC (Streptococcus agalactiae [16]) [µg/mL] | MIC (Streptococcus agalactiae [17]) [µg/mL] | MIC [19] [µg/mL] | MIC (Staphylococcus aureus [20]) [µg/mL] | MIC (Staphylococcus aureus [21]) [µg/mL] | MIC (Escherichia coli [22]) [µg/mL] | other results
1 | CC[C@H]1OC(=O)[C@H](C)C[C@H](C)[C@@H](O[C@@H]2O[C@H](C)C[C@H](N(C)C)[C@H]2O)[C@](C)(OC)C[C@@H](C)/C(=N\O)[C@H](C)[C@@H](O)[C@]1(C)O | 0.2 | > 100 | > 100 | > 100 | 50 | 12.5 (≈ 21.2 µM) | 12.5 (≈ 21.2 µM) | 12.5 (≈ 21.2 µM) | > 100 | 0.2 | 0.2 | 0.78 (≈ 1.32 µM) | 0.05 | 0.2 | 0.01 | 0.78 (≈ 1.32 µM) | 0.2 | 25 (≈ 42.5 µM) | > 100 | 0.2 | MIC (Streptococcus pyogenes [11]): 1.56 µg/mL (≈ 2.65 µM); MIC (Streptococcus pyogenes [18]): 6.2 µg/mL; MIC (Staphylococcus aureus [23]): 3.1 µg/mL; MIC (Staphylococcus aureus [24]): > 100 µg/mL; MIC (Staphylococcus aureus [25]): 12.5 µg/mL (≈ 21.2 µM); MIC (Staphylococcus aureus [26]): 12.5 µg/mL (≈ 21.2 µM); MIC (Streptococcus pyogenes [27]): > 100 µg/mL; MIC (Streptococcus pyogenes [28]): 0.01 µg/mL; MIC (Streptococcus equinus [29]): 0.05 µg/mL; MIC (Enterococcus faecium [30]): 3.1 µg/mL (≈ 5.27 µM); MIC (Escherichia coli [31]): 0.78 µg/mL (≈ 1.32 µM); MIC (Streptococcus pyogenes [32]): 0.78 µg/mL (≈ 1.32 µM)
2 | CC[C@H]1OC(=O)[C@H](C)C[C@H](C)[C@@H](O[C@@H]2O[C@H](C)C[C@H](N(C)C)[C@H]2O)[C@](C)(OC)C[C@@H](C)C(=O)[C@H](C)[C@H]2OC(=O)O[C@@]21C | 0.2 | > 100 | > 100 | > 100 | 50 | 3.1 (≈ 5.17 µM) | 6.2 (≈ 10.3 µM) | 6.2 (≈ 10.3 µM) | > 100 | 0.2 | 0.2 | 0.2 (≈ 0.333 µM) | 0.05 | 0.2 | 0.01 | 0.2 (≈ 0.333 µM) | 0.2 | 3.1 (≈ 5.17 µM) | > 100 | 0.2 | MIC (Streptococcus pyogenes [11]): 0.78 µg/mL (≈ 1.3 µM); MIC (Streptococcus pyogenes [18]): 6.2 µg/mL; MIC (Staphylococcus aureus [23]): 3.1 µg/mL; MIC (Staphylococcus aureus [24]): > 100 µg/mL; MIC (Staphylococcus aureus [25]): 6.2 µg/mL (≈ 10.3 µM); MIC (Staphylococcus aureus [26]): 3.1 µg/mL (≈ 5.17 µM); MIC (Streptococcus pyogenes [27]): > 100 µg/mL; MIC (Streptococcus pyogenes [28]): 0.01 µg/mL; MIC (Streptococcus equinus [29]): 0.05 µg/mL; MIC (Enterococcus faecium [30]): 0.78 µg/mL (≈ 1.3 µM); MIC (Escherichia coli [31]): 0.78 µg/mL (≈ 1.3 µM); MIC (Streptococcus pyogenes [32]): 0.2 µg/mL (≈ 0.333 µM)
3 | CC[C@H]1OC(=O)[C@H](C)C[C@H](C)[C@@H](O[C@@H]2O[C@H](C)C[C@H](N(C)C)[C@H]2O)[C@](C)(OC)C[C@@H](C)/C(=N\OC)[C@H](C)[C@@H](O)[C@]1(C)O | 0.39 | > 100 | > 100 | > 100 | 50 | 100 (≈ 166 µM) | 100 (≈ 166 µM) | 100 (≈ 166 µM) | > 100 | 0.39 | 0.39 | 3.1 (≈ 5.14 µM) | 0.1 | 0.2 | 0.02 | 25 (≈ 41.5 µM) | 0.2 | 100 (≈ 166 µM) | > 100 | 0.39 | MIC (Staphylococcus aureus [23]): 6.2 µg/mL; MIC (Staphylococcus aureus [24]): > 100 µg/mL; MIC (Staphylococcus aureus [25]): 100 µg/mL (≈ 166 µM); MIC (Staphylococcus aureus [26]): 100 µg/mL (≈ 166 µM); MIC (Streptococcus pyogenes [27]): 100 µg/mL (≈ 166 µM); MIC (Streptococcus pyogenes [28]): 0.01 µg/mL; MIC (Streptococcus equinus [29]): 0.01 µg/mL; MIC (Enterococcus faecium [30]): 100 µg/mL (≈ 166 µM); MIC (Escherichia coli [31]): 6.2 µg/mL (≈ 10.3 µM); MIC (Streptococcus pyogenes [32]): 6.2 µg/mL (≈ 10.3 µM)
4 | CC[C@H]1OC(=O)[C@H](C)C[C@H](C)[C@@H](O[C@@H]2O[C@H](C)C[C@H](N(C)C)[C@H]2O)[C@](C)(OC)C[C@@H](C)C(=O)[C@H](C)[C@@H](O)[C@]1(C)O | 0.2 | > 100 | > 100 | > 100 | 50 | 25 (≈ 43.6 µM) | 50 (≈ 87.1 µM) | 6.2 (≈ 10.8 µM) | > 100 | 0.2 | 0.2 | 0.78 (≈ 1.36 µM) | 0.05 | 0.1 | 0.02 | 3.1 (≈ 5.4 µM) | 0.1 | 25 (≈ 43.6 µM) | > 100 | 0.1 | MIC (Streptococcus pyogenes [11]): 3.1 µg/mL (≈ 5.4 µM); MIC (Streptococcus pyogenes [18]): 6.2 µg/mL; MIC (Staphylococcus aureus [23]): 1.56 µg/mL; MIC (Staphylococcus aureus [24]): > 100 µg/mL; MIC (Staphylococcus aureus [25]): 25 µg/mL (≈ 43.6 µM); MIC (Staphylococcus aureus [26]): 25 µg/mL (≈ 43.6 µM); MIC (Streptococcus pyogenes [27]): > 100 µg/mL; MIC (Streptococcus pyogenes [28]): 0.02 µg/mL; MIC (Streptococcus equinus [29]): 0.02 µg/mL; MIC (Enterococcus faecium [30]): 25 µg/mL (≈ 43.6 µM); MIC (Escherichia coli [31]): 0.78 µg/mL (≈ 1.36 µM); MIC (Streptococcus pyogenes [32]): 1.56 µg/mL (≈ 2.72 µM)
